Reference: patent US11918590B2 (Intas Pharmaceuticals Ltd., priority 2021, dated 2024)
Values after ≈ are worked out from the molar mass of the structure shown. Where two headings read alike, the source gives them in different places.

Assays:
[1] = cited from earlier work
[2] = Solubility study of clozapine at various pH and solvent; assay type: physicochemical
[3] = pH 4.0 to 4.5 of Acetate buffer

SMILES	solubility in water [1]	Solubility ([2]; 0.1N Hydrochloric acid)	Solubility ([2]; Purified Water)	Solubility [2, 3]	Solubility ([2]; pH 6.8 of Phosphate buffer)	Solubility ([2]; phosphate buffer, pH 6.8, aqueous buffer, thermodynamic from solid, pH 6.8 of Phosphate buffer, read-out: Solubility)	Solubility ([2]; purified water, water, thermodynamic from solid, Purified Water, read-out: Solubility)
CN1CCN(C2=Nc3cc(Cl)ccc3Nc3ccccc32)CC1 [Clozapine, 8-chloro-11-(4-methyl-1-piperazinyl)-5H-dibenzo [b,e][1,4] diazepine]	very slightly soluble in water						
CN1CCN(C2=Nc3cc(Cl)ccc3Nc3ccccc32)CC1 [Micronized, Clozapine]		28727 µg/mL (≈ 87900 µM)	31 µg/mL (≈ 94.9 µM)	4773 µg/mL (≈ 14600 µM)	121 µg/mL (≈ 370 µM)		
CN1CCN(C2=Nc3cc(Cl)ccc3Nc3ccccc32)CC1 [Un-micronized, Clozapine]		418 µg/mL (≈ 1280 µM)		730 µg/mL (≈ 2230 µM)		100 µg/mL (≈ 306 µM)	40 µg/mL (≈ 122 µM)
